From ChEMBL document CHEMBL1144960, “Studies on the synthesis and anti-Osteoporosis of estrogen-GHRPs linkers” (2003)

Assays:
Type in all cases: functional
Rattus norvegicus [1] = assay: Activity tested for the content of calcium in serum of rat when 18 ug/kg of compound was administered intramuscularly when compared to prednisone
Rattus norvegicus [2] = assay: Activity of alkaline phosphatase (ALP) tested in serum of rat when 18 ug/kg of compound was administered intramuscularly
Rattus norvegicus [3] = species on record: Rattus norvegicus; assay: Percentage content of calcium in femur tested in the compound using male ICR rats when compared to vehicle
Rattus norvegicus [4] = species on record: Rattus norvegicus; assay: Percentage content of phosphor in femur tested in the compound using male ICR rats
Rattus norvegicus [5] = assay: Weight of rat femur ash tested after intramuscular administration of 18 ug/kg of compound when compared to vehicle
Rattus norvegicus [6] = assay: Weight of rat femur tested after intramuscular administration of 18 ug/kg of compound when compared to vehicle
Rattus norvegicus [7] = assay: Weight of rat body tested after intramuscular administration of 18 ug/kg of compound when compared to prednisone
Rattus norvegicus [8] = assay: Activity tested for the content of calcium in serum of rat when 18 ug/kg of compound was administered intramuscularly when compared to vehicle
Rattus norvegicus [9] = assay: Weight of rat body tested after intramuscular administration of 18 ug/kg of compound when compared to vehicle

Compound `CC(C)C[C@H](NC(=O)[C@H](Cc1ccccc1)NC(=O)CNC(=O)CNC(=O)[C@H](Cc1ccc(O)cc1)NC(=O)CCC(=O)O[C@H]1CC[C@H]2[C@@H]3CCc4cc(O)ccc4[C@H]3CC[C@]12C)C(N)=O` has a Ca2+ (Rattus norvegicus [1]) of 1.92 mM.

`C[C@]12CC[C@@H]3c4ccc(O)cc4CC[C@H]3[C@@H]1CCC2O` (single isomer, unassigned) [ESTRADIOL] was tested, and the Ca2+ (Rattus norvegicus [1]) was 2.13 mM, the Activity (Rattus norvegicus [2]) was 44.1 and the “Ca2+” value (Rattus norvegicus [3]) was 42.11%. The Phosphor (Rattus norvegicus [4]) was 21.85%, the Weight (Rattus norvegicus [5]) was 22.82 mg and the Weight (Rattus norvegicus [6]) was 35.09 mg. For the same compound, the Weight (Rattus norvegicus [7]) was 35.39 g.

With `C[C@]12CC[C@@H]3c4ccc(O)cc4CCC3[C@@H]1CCC2=O` (single isomer, unassigned) [ESTRONE] the Activity (Rattus norvegicus [2]) was 45.84, the Ca2+ (Rattus norvegicus [8]) was 2.28 mM and the “Ca2+” value (Rattus norvegicus [3]) was 40.83%. For the same compound, the Phosphor (Rattus norvegicus [4]) was 22.02%, the Weight (Rattus norvegicus [5]) was 21.69 mg and the Weight (Rattus norvegicus [6]) was 33.93 mg. The Weight (Rattus norvegicus [9]) was 33.62 g.

With `CC(C)C[C@H](NC(=O)[C@H](Cc1ccccc1)NC(=O)CNC(=O)CNC(=O)[C@@H](N)Cc1ccc(O)cc1)C(=O)O` [ENKEPHALIN] the Activity (Rattus norvegicus [2]) was 37.7, the Phosphor (Rattus norvegicus [4]) was 22.27% and the Weight (Rattus norvegicus [5]) was 21.74 mg. It also gave a Weight (Rattus norvegicus [9]) of 33.29 g.

For `C[C@]12C=CC(=O)C=C1CC[C@@H]1[C@@H]2C(=O)C[C@@]2(C)[C@H]1CC[C@]2(O)C(=O)CO` [PREDNISONE], the Activity (Rattus norvegicus [2]) was 48.7, the Ca2+ (Rattus norvegicus [8]) was 2.42 mM and the “Ca2+” value (Rattus norvegicus [3]) was 39.54%. It also gave a Phosphor (Rattus norvegicus [4]) of 20.87%, a Weight (Rattus norvegicus [5]) of 21.26 mg and a Weight (Rattus norvegicus [6]) of 33.39 mg. It also gave a Weight (Rattus norvegicus [9]) of 31.89 g.

For `CC(C)C[C@H](NC(=O)[C@H](Cc1ccccc1)NC(=O)CNC(=O)CNC(=O)[C@@H](N)Cc1ccc(O)cc1)C(N)=O` [[LEU5]ENKEPHALIN], the Ca2+ (Rattus norvegicus [1]) was 2.01 mM, the Activity (Rattus norvegicus [2]) was 34.22 and the Phosphor (Rattus norvegicus [4]) was 22.35%. The Weight (Rattus norvegicus [5]) was 22.8 mg and the Weight (Rattus norvegicus [9]) was 34.16 g.
